Holding throughout (assay type): biochemical
In one assay the target is MASP-2 (CCP1-CCP2-SP) (Homo sapiens (Human), UniProt O00187). Description: biochemical. To be noted: for Ki: read-out: MASP-2 Ki.
Another assay addresses human α-thrombin (Homo sapiens (Human), UniProt P00734). Description: Enzymatic assay for thrombin (Boc-VPR-AMC substrate).
For a further assay, the system named is Lectin Pathway. Nature of the assay: Lectin pathway activation assay in human serum (mannan-coated ELISA, C3c detection). Particulars: 1% human serum. (In an ELISA, binding on a coated surface is turned into a signal by an enzyme label.)
A further assay has as its target mMASP-2 (Mus musculus (Mouse), UniProt Q91WP0). Description: Enzymatic inhibition of mMASP-2. Particulars: read-out: mMASP-2 Ki.
Where [1] appears, read: selectivity for MASP-2 inhibition versus thrombin.

Structures can show the parent of a compound that is named as a salt. Where two headings read alike, the source gives them in different places.

Sequence of mMASP-2 (Q91WP0 20-685): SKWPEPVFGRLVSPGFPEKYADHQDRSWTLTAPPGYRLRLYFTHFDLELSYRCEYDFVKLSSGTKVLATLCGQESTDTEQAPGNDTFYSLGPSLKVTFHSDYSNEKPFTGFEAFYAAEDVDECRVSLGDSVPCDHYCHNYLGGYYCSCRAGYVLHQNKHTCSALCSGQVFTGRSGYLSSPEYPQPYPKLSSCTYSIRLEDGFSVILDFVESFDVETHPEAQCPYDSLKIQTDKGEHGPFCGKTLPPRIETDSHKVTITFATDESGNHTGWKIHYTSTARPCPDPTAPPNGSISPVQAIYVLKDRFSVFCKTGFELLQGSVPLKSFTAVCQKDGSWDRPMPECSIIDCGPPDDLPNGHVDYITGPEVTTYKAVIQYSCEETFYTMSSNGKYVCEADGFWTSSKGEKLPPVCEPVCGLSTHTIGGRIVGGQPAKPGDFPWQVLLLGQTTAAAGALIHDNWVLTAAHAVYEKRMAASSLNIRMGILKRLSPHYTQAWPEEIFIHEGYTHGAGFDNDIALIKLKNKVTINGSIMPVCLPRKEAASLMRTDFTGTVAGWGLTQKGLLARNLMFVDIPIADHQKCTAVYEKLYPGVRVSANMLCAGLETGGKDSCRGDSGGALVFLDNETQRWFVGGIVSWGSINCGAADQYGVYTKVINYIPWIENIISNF
Sequence of MASP-2 (CCP1-CCP2-SP) (O00187 445-686): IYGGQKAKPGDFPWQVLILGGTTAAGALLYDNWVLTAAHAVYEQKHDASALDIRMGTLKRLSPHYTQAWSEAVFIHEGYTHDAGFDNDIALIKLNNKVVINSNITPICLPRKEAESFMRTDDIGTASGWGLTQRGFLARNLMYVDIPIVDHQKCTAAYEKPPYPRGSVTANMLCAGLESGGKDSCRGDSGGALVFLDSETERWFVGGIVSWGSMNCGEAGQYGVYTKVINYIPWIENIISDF

In general, Ki refers to the equilibrium dissociation constant of an inhibitor or competing ligand from its target. By IC50 is commonly meant the concentration needed to halve the response being measured. Low readings indicate higher potency, high ones lower potency. Turning to `Cc1nc(N)ccc1CNC(=O)[C@H](C)NC(=O)[C@H]1Cc2c(sc3ccccc23)CN1` [compound 1400, (R)—N—((S)-1-(((6-Amino-2-methylpyridin-3-yl)methyl)amino)-1-oxopropan-2-yl)-1,2,3,4-tetrahydrobenzo[4,5]thieno[2,3-c]pyridine-3-carboxamide Hydrochloride], the Ki on MASP-2 (CCP1-CCP2-SP) was below 500 nM; at human α-thrombin (read-out: Thrombin Ki), above 25 µM; on mMASP-2, 2500 to 10000 nM. In the assay with Lectin Pathway, this compound gave an IC50 of 500 to 5000 nM.
For `Cc1nc(N)ccc1CNC(=O)[C@H](C)NC(=O)[C@H]1C[C@H](Cc2cccc(C#N)c2)CN1` [compound 1429, (2R,4S)—N—((S)-1-(((6-Amino-2-methylpyridin-3-yl)methyl)amino)-1-oxopropan-2-yl)-4-(3-cyanobenzyl)pyrrolidine-2-carboxamide Di-trifluoroacetate salt], the inhibition constant Ki at MASP-2 (CCP1-CCP2-SP) was below 500 nM; on human α-thrombin (Thrombin Ki (μM)), 2.5 to 10 µM; at mMASP-2 it was below 500 nM. The “MASP-2 vs. thrombin selectivity” value at MASP-2 (CCP1-CCP2-SP) (setting [1]) is recorded as “**** (≥100-fold)”. The compound further showed an IC50 in the assay on Lectin Pathway of 500 to 5000 nM.
For `Cc1nc(N)ccc1CNC(=O)Cn1c(C)cnc(NCCc2ccccc2)c1=O` [compound 1488], the Ki is below 500 nM at MASP-2 (CCP1-CCP2-SP), below 0.5 µM at human α-thrombin (read-out: Thrombin Ki) and 2500 to 10000 nM on mMASP-2. Moreover, at MASP-2 (CCP1-CCP2-SP) (setting [1]), the “MASP-2 vs. thrombin selectivity” value is recorded as “−− (<1.0-fold)”. Besides, the IC50 with Lectin Pathway is 500 to 5000 nM.
Taken in the same sequence, the figures for `Cc1nc(N)ccc1CNC(=O)[C@@H]1CCN1C(=O)[C@H]1C[C@H](Cc2ccc(Br)cc2)CN1` [compound 1438, (S)—N-((6-Amino-2-methylpyridin-3-yl)methyl)-1-((2R,4S)-4-(4-bromobenzyl)pyrrolidine-2-carbonyl)azetidine-2-carboxamide Di-trifluoroacetate salt] were below 500 nM, below 0.5 µM, 500 to 2500 nM, “** (≥5.0 to <25-fold)” and 500 to 5000 nM.
As for `Cc1nc(N)ccc1CNC(=O)[C@H](C)NC(=O)[C@H]1C[C@H](Cc2ccc(C#N)c3ccccc23)CN1` [compound 1431, (2R,4S)—N—((S)-1-(((6-Amino-2-methylpyridin-3-yl)methyl)amino)-1-oxopropan-2-yl)-4-((4-cyanonaphthalen-1-yl)methyl)pyrrolidine-2-carboxamide Dihydrochloride], the figures for the Ki at MASP-2 (CCP1-CCP2-SP), at human α-thrombin (Thrombin Ki (μM)) and on mMASP-2 were below 500 nM, 10 to 25 µM and below 500 nM, respectively. Also, the “MASP-2 vs. thrombin selectivity” value at MASP-2 (CCP1-CCP2-SP) (setting [1]) was “**** (≥100-fold)”. Further, in the assay on Lectin Pathway, the half-maximal inhibitory concentration (IC50) fell in the range of 50 to 500 nM.
Take `C[C@H](NC(=O)[C@@H](CCc1ccccc1)NCCc1cccc(OC(F)(F)F)c1)C(=O)NCc1ccc(C(=N)N)cc1` [compound 1352, (R)—N—((S)-1-((4-Carbamimidoylbenzyl)amino)-1-oxopropan-2-yl)-4-phenyl-2-((3-(trifluoromethoxy)phenethyl)amino)butanamide Di-trifluoroacetate salt]: the Ki is below 500 nM at MASP-2 (CCP1-CCP2-SP), 0.5 to 2.5 µM on human α-thrombin (Thrombin Ki (μM)) and below 500 nM at mMASP-2. For the same compound, the “MASP-2 vs. thrombin selectivity” value at MASP-2 (CCP1-CCP2-SP) (setting [1]) is “*** (≥25 to <100-fold)”. This compound gave an IC50 in the assay on Lectin Pathway of 50 to 500 nM.
Regarding `Cc1nc(N)ccc1CNC(=O)[C@H](C)NC(=O)[C@H]1C[C@H](Cc2ccc(Cl)c(Cl)c2)CN1` [compound 1422, (2R,4S)—N—((S)-1-(((6-Amino-2-methylpyridin-3-yl)methyl)amino)-1-oxopropan-2-yl)-4-(3,4-dichlorobenzyl)pyrrolidine-2-carboxamide Dihydrochloride], the Ki at MASP-2 (CCP1-CCP2-SP) is below 500 nM; on human α-thrombin (Thrombin Ki (μM)), 2.5 to 10 µM; at mMASP-2, below 500 nM. Further, the “MASP-2 vs. thrombin selectivity” value on MASP-2 (CCP1-CCP2-SP) (setting [1]) is “**** (≥100-fold)”. Besides, in the assay with Lectin Pathway, the IC50 lay within 500 to 5000 nM.
For the compound `Cc1nc(N)ccc1CNC(=O)[C@H](C)NC(=O)[C@H]1C[C@H](Cc2ccc(F)cc2)CN1` [compound 1447, (2R,4S)—N—((S)-1-(((6-Amino-2-methylpyridin-3-yl)methyl)amino)-1-oxopropan-2-yl)-4-(4-fluorobenzyl)pyrrolidine-2-carboxamide Di-trifluoroacetate salt], the Ki was below 500 nM at MASP-2 (CCP1-CCP2-SP), 2.5 to 10 µM on human α-thrombin (Thrombin Ki (μM)) and below 500 nM at mMASP-2. Also, on MASP-2 (CCP1-CCP2-SP) (setting [1]), the “MASP-2 vs. thrombin selectivity” value was “**** (≥100-fold)”. This compound returned an IC50 in the assay on Lectin Pathway of 500 to 5000 nM.
With `Cc1nc(N)ccc1CNC(=O)[C@H](C)NC(=O)[C@H]1C[C@H](Oc2ccc(Br)cc2)CN1` [compound 1445, (2R,4S)—N—((S)-1-(((6-Amino-2-methylpyridin-3-yl)methyl)amino)-1-oxopropan-2-yl)-4-(4-bromophenoxy)pyrrolidine-2-carboxamide Dihydrochloride], the figures for the Ki at MASP-2 (CCP1-CCP2-SP), at human α-thrombin (read-out: Thrombin Ki) and at mMASP-2 were below 500 nM, above 25 µM and 500 to 2500 nM, respectively. Besides, the “MASP-2 vs. thrombin selectivity” value at MASP-2 (CCP1-CCP2-SP) (setting [1]) is on record as “**** (≥100-fold)”. Besides, in the assay on Lectin Pathway, the IC50 lay in the range of 5000 to 50000 nM.
Take `C[C@H](NC(=O)[C@H](N)CCc1ccccc1)C(=O)NCc1ccc2c(N)ncnc2c1` [compound 1060, (R)-2-Amino-N—((S)-1-(((4-aminoquinazolin-7-yl)methyl)amino)-1-oxopropan-2-yl)-4-phenylbutanamide Dihydrochloride]: the “MASP-2 vs. thrombin selectivity” value at MASP-2 (CCP1-CCP2-SP) (MASP-2 inhibition versus thrombin) is reported as “*** (25 to 100-fold)”. For the same compound, the Ki is above 25 µM on human α-thrombin (read-out: Thrombin Ki) and above 25000 nM on mMASP-2. This compound also returned a 50% inhibitory concentration (IC50) in the assay on Lectin Pathway above 50000 nM.
In the case of `C[C@H](NC(=O)[C@H]1C[C@H](Cc2cccc3ccccc23)CN1)C(=O)NCc1cnc2[nH]cc(Cl)c2c1` [compound 1415, (2R,4S)—N—((S)-1-(((3-Chloro-1H-pyrrolo[2,3-b]pyridin-5-yl)methyl)amino)-1-oxopropan-2-yl)-4-(naphthalen-1-ylmethyl)pyrrolidine-2-carboxamide Hydrochloride], the Ki was below 500 nM on MASP-2 (CCP1-CCP2-SP), below 0.5 µM at human α-thrombin (read-out: Thrombin Ki) and below 500 nM at mMASP-2. Moreover, the “MASP-2 vs. thrombin selectivity” value at MASP-2 (CCP1-CCP2-SP) (setting [1]) was “* (≥1.0 to <5.0-fold)”. In the assay on Lectin Pathway, the IC50 was 50 to 500 nM.
Take `Cc1nc(N)ccc1CNC(=O)[C@H](C)NC(=O)[C@H]1C[C@H](Cc2ccc(-c3ccc(F)cc3C(N)=O)cc2)CN1` [compound 1397, (2R,4S)—N—((S)-1-(((6-amino-2-methylpyridin-3-yl)methyl)amino)-1-oxopropan-2-yl)-4-((2′-carbamoyl-4′-fluoro-[1,1′-biphenyl]-4-yl)methyl)pyrrolidine-2-carboxamide Di-trifluoroacetate salt]: the Ki on MASP-2 (CCP1-CCP2-SP) was below 500 nM; at human α-thrombin (read-out: Thrombin Ki), above 25 µM; at mMASP-2 it was below 500 nM. For the same compound, on MASP-2 (CCP1-CCP2-SP) (setting [1]), the “MASP-2 vs. thrombin selectivity” value is listed as “**** (≥100-fold)”. The IC50 with Lectin Pathway lay within 50 to 500 nM.
Turning to `Cc1[nH]c(C(=O)N[C@@H](C)C(=O)NCc2ccc(C(=N)N)cc2)cc1-c1ccccc1` [compound 1239, (S)—N-(1-((4-Carbamimidoylbenzyl)amino)-1-oxopropan-2-yl)-5-methyl-4-phenyl-1H-pyrrole-2-carboxamide], the results for the Ki at MASP-2 (CCP1-CCP2-SP), on human α-thrombin (Thrombin Ki (μM)) and on mMASP-2 were below 500 nM, 2.5 to 10 µM and below 500 nM, respectively. The “MASP-2 vs. thrombin selectivity” value on MASP-2 (CCP1-CCP2-SP) (setting [1]) is on record as “** (≥5.0 to <25-fold)”. Also, the IC50 in the assay with Lectin Pathway was 500 to 5000 nM.
Take `C[C@H](NC(=O)[C@H]1C[C@H](Cc2ccc3ccccc3c2)CN1)C(=O)NCc1cnc2[nH]cc(Cl)c2c1` [compound 1392, (2R,4S)—N—((S)-1-(((3-Chloro-1H-pyrrolo[2,3-b]pyridin-5-yl)methyl)amino)-1-oxopropan-2-yl)-4-(naphthalen-2-ylmethyl)pyrrolidine-2-carboxamide Di-Trifluoroacetate salt]: the Ki at MASP-2 (CCP1-CCP2-SP) is below 500 nM; on human α-thrombin (Thrombin Ki (μM)) it was 0.5 to 2.5 µM; on mMASP-2, below 500 nM. In addition, the “MASP-2 vs. thrombin selectivity” value on MASP-2 (CCP1-CCP2-SP) (setting [1]) is recorded as “*** (≥25 to <100-fold)”. The IC50 in the assay on Lectin Pathway was in the range of 500 to 5000 nM.
In the case of `C[C@H](NC(=O)[C@H]1C[C@H](Cc2ccccc2)CN1)C(=O)NCc1cc(Cl)ccc1-n1cnnn1` [compound 1371, (2R,4S)-4-Benzyl-N-((S)-1-((5-chloro-2-(1H-tetrazol-1-yl)benzyl)amino)-1-oxopropan-2-yl)pyrrolidine-2-carboxamide Hydrochloride], the values for the Ki at MASP-2 (CCP1-CCP2-SP), on human α-thrombin (read-out: Thrombin Ki) and at mMASP-2 were below 500 nM, below 0.5 µM and 500 to 2500 nM, respectively. Besides, the “MASP-2 vs. thrombin selectivity” value at MASP-2 (CCP1-CCP2-SP) (setting [1]) is “−− (<1.0-fold)”. In the assay on Lectin Pathway, this compound gave an IC50 of 50 to 500 nM.
Regarding `Cc1nc(N)ccc1CNC(=O)[C@H](C)NC(=O)[C@H]1C[C@H](Cc2ccc(-c3ccc(F)cc3C#N)cc2)CN1` [compound 1396, (2R,4S)—N—((S)-1-(((6-Amino-2-methylpyridin-3-yl)methyl)amino)-1-oxopropan-2-yl)-4-((2′-cyano-4′-fluoro-[1,1′-biphenyl]-4-yl)methyl)pyrrolidine-2-carboxamide], the Ki is above 25 µM at human α-thrombin (read-out: Thrombin Ki) and below 500 nM on mMASP-2. The half-maximal inhibitory concentration (IC50) in the assay on Lectin Pathway lay within 500 to 5000 nM.
The corresponding values for `C[C@H](NC(=O)[C@H](N)CCc1ccccc1)C(=O)NCCc1ccnc(N)c1` [compound 1016, (R)-2-Amino-N—((S)-1-((2-(2-aminopyridin-4-yl)ethyl)amino)-1-oxopropan-2-yl)-4-phenylbutanamide Dihydrochloride] are above 25 µM, below 25000 nM and 5000 to 50000 nM.
The corresponding values for `Cc1nc(N)ccc1CNC(=O)C(C)NC(=O)[C@H]1C[C@H](c2cccc(-c3ccccc3)c2)CN1` (stereo in doubt) [compound 1360, (2R,4R)-4-([1,1′-Biphenyl]-3-yl)-N—((R)-1-(((6-amino-2-methylpyridin-3-yl)methyl)amino)-1-oxopropan-2-yl)pyrrolidine-2-carboxamide Di-trifluoroacetate salt] are above 25 µM, below 500 nM and 50 to 500 nM.
The corresponding values for `Cc1nc(N)ccc1CNC(=O)[C@H](C)NC(=O)C1=CC(c2ccccc2)C2=C(CC(C)(C)CC2=O)N1` (stereo partly drawn) [compound 1388, N-((S)-1-(((6-Amino-2-methylpyridin-3-yl)methyl)amino)-1-oxopropan-2-yl)-7,7-dimethyl-5-oxo-4-phenyl-1,4,5,6,7,8-hexahydroquinoline-2-carboxamide] are above 25 µM, below 500 nM and below 50 nM.

These data come from patent US11584714B2 (priority 2018, dated 2023).
